Assay results from ChEMBL document CHEMBL5096154, “A comprehensive review on the biological interest of quinoline and its derivatives” (Bioorg Med Chem, 2021).
pIC50: −log10 of the molar value. In brackets after ≈: the same amount, converted by molar mass.

What was measured:
[1] = test system: Plasmodium falciparum; experiment: Antimalarial activity against chloroquine-resistant Plasmodium falciparum assessed as parasite growth inhibition measured for 24 to 72 hrs; format: functional, organism-based
[2] = test system: Mycobacterium tuberculosis; experiment: Antimycobacterial activity against Mycobacterium tuberculosis H37Rv assessed as bacterial growth inhibition by microplate alamar blue assay; format: functional
[3] = test system: Leishmania braziliensis; experiment: Antileishmanial activity against promastigote form of Leishmania braziliensis assessed as parasite growth inhibition; format: functional

Row | Structure (SMILES) | MIC [2] | IC90 [3] | other results
1 | CN1c2ccccc2CCC1CCc1ccc2c(c1)OCO2 (stereo unspecified) | – | – | pIC50 [1]: 6.56
2 | CC[C@@H](CO)NCCN[C@@H](CC)CO [ETHAMBUTOL] | 7.6 µM | – | –
3 | C/C=C/c1ccc2ccccc2n1 [CHIMANINE B] | – | 25 µg/mL (≈ 148 µM) | –
4 | CC1OC1c1ccc2ccccc2n1 (stereo unspecified) | – | 25 µg/mL (≈ 135 µM) | –
5 | COc1ccc(-c2nc3ncccc3c3ccoc23)cc1 | 5.6 µM | – | –
6 | CCCc1ccc2ccccc2n1 | – | 20 µg/mL (≈ 117 µM) | –
